Values of other authors, collected in PMC2839367 (The Science of the total environment, 2010).

Assays:
human estrogen receptor = settings: ref Folmar et al (2002)
[1] = system: S. cerevisiae BLYES estrogen sensitive strain; settings: ref Sanseverino et al (2005)

## nonylphenol
Human estrogen receptor
  EC50: 290 µM
[1]
  EC50: 17 µM
